ChEMBL document CHEMBL5608235, “Tricyclic Benzo[1,3]oxazinyloxazolidinones as Potent Antibacterial Agents against Drug-Resistant Pathogens” (J Med Chem, 2024)
≈ marks a conversion by molar mass, not a printed value.

Columns and labels:
[1] = tested on: Mycobacterium tuberculosis; assay: Antibacterial activity against isoniazid/streptomycin/rifampicin/ethambutol/rifabutin/para-axminosalicylate/ofloxacin resistant Mycobacterium tuberculosis 13946 assessed as inhibition of bacterial growth incubated for 7 days by alamar blue assay; type: functional; settings: Mycobacterium tuberculosis, 13946, 168 h; time 7 day
[2] = tested on: Mycobacterium tuberculosis; assay: Antibacterial activity against isoniazid/streptomycin/rifampicin/ethambutol/para-axminosalicylate/prothionamide/capreomycin resistant Mycobacterium tuberculosis 14862 assessed as inhibition of bacterial growth incubated for 7 days by alamar blue assay; type: functional; settings: Mycobacterium tuberculosis, 14862, 168 h; time 7 day

Structure (SMILES)	MIC [1]	MIC [2]
CC(=O)NC[C@@H]1OC(=O)N2Cc3cc(-c4ccc(C#N)cc4)c(F)cc3O[C@@H]12	0.11 µg/mL (≈ 0.288 µM)	0.41 µg/mL (≈ 1.08 µM)
COC(=O)NC[C@@H]1OC(=O)N2Cc3cc(-c4ccc(-c5nnn(C)n5)nc4)c(F)cc3O[C@@H]12	0.39 µg/mL (≈ 0.856 µM)	0.22 µg/mL (≈ 0.483 µM)
CC(=O)NC[C@@H]1OC(=O)N2Cc3c(cc(F)c(-c4ccc(C#N)nc4)c3F)O[C@@H]12	0.48 µg/mL (≈ 1.2 µM)	0.47 µg/mL (≈ 1.17 µM)
CC(=O)NC[C@@H]1OC(=O)N2Cc3c(cc(F)c(-c4ccc(-c5nnn(C)n5)nc4)c3F)O[C@@H]12	0.28 µg/mL (≈ 0.612 µM)	0.33 µg/mL (≈ 0.721 µM)
COC(=O)NC[C@@H]1OC(=O)N2Cc3cc(-c4ccc(C#N)cc4)c(F)cc3O[C@@H]12	0.56 µg/mL (≈ 1.41 µM)	0.24 µg/mL (≈ 0.604 µM)
COC(=O)NC[C@@H]1OC(=O)N2Cc3cc(-c4ccc(C#N)nc4)c(F)cc3O[C@@H]12	0.87 µg/mL (≈ 2.18 µM)	0.6 µg/mL (≈ 1.51 µM)
NNC(=O)c1ccncc1 [ISONIAZID]	4.78 µg/mL (≈ 34.9 µM)	> 10 µg/mL
CO[C@H]1/C=C/O[C@@]2(C)Oc3c(C)c(O)c4c(O)c(c(/C=N/N5CCN(C)CC5)c(O)c4c3C2=O)NC(=O)/C(C)=C\C=C\[C@H](C)[C@H](O)[C@@H](C)[C@@H](O)[C@@H](C)[C@H](OC(C)=O)[C@@H]1C [RIFAMPIN]	> 10 µg/mL	> 10 µg/mL
